# Reference: patent US12220440B2, “Drug composition, method for treating infection, disinfecting composition, and drug adjuvant” (priority 2022, dated 2025)
# Read-outs that look alike come from different tables or passages of the source.
# What was measured:
# Format in all cases: cell-based
# [1] = system: mcr-1-bearing E. coli; assay: LIVE/DEAD cell viability assay, fluorescence microscopy; details: 20 μg/ml of otilonium bromide alone
# Protocol: Fluorescence microscopy quantifies the number of live and dead cells and determines the degree of reduction in colistin concentration in the drug combination required for effective eradication of the test organism. […] However, in the presence of 20 μg/ml of otilonium bromide, 4 μg/ml of colistin eradicates >97% of the bacteria.
# [2] = system: A. baumannii (colistin-resistant); assay: MIC, colistin-resistant A. baumannii isolates, with and without otilonium bromide; details: Acinetobacter baumannii
# [3] = system: P. aeruginosa PAO1; assay: Bacterial motility on semisolid agar (migration distance)
# Description: It is believed that flagellar formation and flagellar motor rotation are driven by PMF. To study the effect of otilonium bromide on bacterial motility, P. aeruginosa, whose motility on a semisolid surface is dependent upon a functional flagellum, is reviewed. […] Gramicidin, an ionophore known for acting as PMF dissipater, is the positive control. […] For the experiments in FIG. 6a, P. aeruginosa is inoculated in the center of the semisolid agar containing otilonium bromide at the indicated concentrations, with gramicidin as the positive control. A set of 10 mM CaCl2 and no CaC2 plates are also prepared as indicated.
# The migration distance is measured in cm and recorded after the inoculated plates ae incubated. The error bars represent the means and standard deviations (SDs). Statistical analysis is performed using unpaired two-tailed student t-test. .*, p<0.05, **, p<0.005, ***p<0.0005, ****p<0.00005.
# [4] = system: S. Typhimurium PY01; assay: MIC, colistin-susceptible S. Typhimurium, with and without otilonium bromide; details: Salmonella enterica, Ob alone, read-out: Ob MIC
# [5] = system: mcr-1-bearing E. coli J53; assay: SYTOX Green membrane permeability staining
# Description: SYTOX™ Green (available from ThermoFisher Scientific) staining analysis assesses the membrane permeability of colistin-resistant E. coli before and after treatment with the colistin and otilonium bromide combination. SYTOX Green is a green-fluorescent nucleotide dye used to test membrane permeability and membrane integrity. Green fluorescence is detected by fluorescence spectrometer when bacterial cell integrity is destroyed and membrane permeability increases.
# [6] = system: P. aeruginosa (colistin-susceptible); assay: MIC, colistin-susceptible P. aeruginosa isolates, with and without otilonium bromide; details: Pseudomonas aeruginosa, Ob alone, read-out: Ob MIC
# [7] = system: E. coli (colistin-resistant); assay: MIC, colistin-resistant E. coli clinical isolates, with and without otilonium bromide; details: Escherichia coli, Ob alone, read-out: Ob MIC
# [8] = system: E. coli Bw25113; assay: MIC, colistin-susceptible E. coli, with and without otilonium bromide; details: Escherichia coli, Ob alone, read-out: Ob MIC
smiles,measurement,setting,value
"CCCCCCCCOc1ccccc1C(=O)Nc1ccc(C(=O)OCC[N+](C)(CC)CC)cc1.[Br-] [Ob, Otilonium bromide]",live/dead state of cells,[1],most or all mcr-1-bearing E. coli strains were alive
same,MIC,"[2]; ATCC17978, read-out: Ob MIC",20 µg/mL
same,MIC,"[2]; read-out: Ob MIC, A. baumannii ABJZ-45, colistin-resistant, Ob alone",20 µg/mL
same,MIC,"[2]; read-out: Ob MIC, A. baumannii ABJZ-46, colistin-resistant, Ob alone",20 µg/mL
same,MIC,"[2]; read-out: Ob MIC, A. baumannii ABJZ-50, colistin-resistant, Ob alone",20 µg/mL
same,migration distance on semisolid agar,[3]; 40 μM otilonium bromide supplemented with 10 mM calcium ions,significant increase in migration distance
same,migration distance on semisolid agar,"[3]; plates containing otilonium bromide, overnight incubation",decrease in a dose-dependent manner
same,MIC,[4],> 64 µg/mL
same,SYTOX Green fluorescence (membrane permeability),[5]; each drug individually,significant increase in fluorescence
same,"ability to enhance membrane permeability, compared with colistin",[5]; otilonium bromide by itself,significantly lower than colistin
same,MIC,"[6]; P. aeruginosa PA01, colistin-susceptible",> 64 µg/mL
same,MIC,"[6]; P. aeruginosa PAER 2011-3010, colistin-susceptible",> 64 µg/mL
same,MIC,"[6]; P. aeruginosa PAER 2011-3252, colistin-susceptible",> 64 µg/mL
same,MIC,"[6]; P. aeruginosa PAER 2012-1527, colistin-susceptible",> 64 µg/mL
same,MIC,"[6]; P. aeruginosa PAERC 10.296, colistin-susceptible",> 64 µg/mL
same,MIC,"[6]; P. aeruginosa PAERC 11.2309, colistin-susceptible",> 64 µg/mL
same,MIC,"[6]; P. aeruginosa PAERC 11.236, colistin-susceptible",> 64 µg/mL
same,MIC,"[6]; P. aeruginosa PAERC 11.603, colistin-susceptible",> 64 µg/mL
same,MIC,"[6]; P. aeruginosa PAERC 12.1478, colistin-susceptible",> 64 µg/mL
same,MIC,"[7]; E. coli 5, colistin-resistant",> 64 µg/mL
same,MIC,"[7]; E. coli 12.12.0487, colistin-resistant",> 64 µg/mL
same,MIC,"[7]; E. coli 101, colistin-resistant",> 64 µg/mL
same,MIC,"[7]; E. coli 119, colistin-resistant",> 64 µg/mL
same,MIC,"[7]; E. coli 812, colistin-resistant",> 64 µg/mL
same,MIC,"[7]; E. coli 2016.2.5 1149-1, colistin-resistant",> 64 µg/mL
same,MIC,"[7]; E. coli 34650, colistin-resistant",> 64 µg/mL
same,MIC,"[7]; E. coli CX48, colistin-resistant",> 64 µg/mL
same,MIC,"[7]; E. coli CX53, colistin-resistant",> 64 µg/mL
same,MIC,"[7]; E. coli CX116, colistin-resistant",> 64 µg/mL
same,MIC,"[7]; E. coli WZ2431, colistin-resistant",> 64 µg/mL
same,MIC,"[7]; E. coli WZ2909, colistin-resistant",> 64 µg/mL
same,MIC,"[7]; E. coli WZ3903, colistin-resistant",> 64 µg/mL
same,MIC,"[7]; E. coli WZ3906, colistin-resistant",> 64 µg/mL
same,MIC,"[7]; E. coli WZ3920, colistin-resistant",> 64 µg/mL
same,MIC,"[7]; E. coli WZ3951, colistin-resistant",> 64 µg/mL
same,MIC,"[7]; E. coli WZ3955, colistin-resistant",> 64 µg/mL
same,MIC,"[7]; E. coli X2169, colistin-resistant",> 64 µg/mL
same,MIC,[8],> 64 µg/mL
